This note sets out measurements from article PMC6273229, “Imidazopyranotacrines as Non-Hepatotoxic, Selective Acetylcholinesterase Inhibitors, and Antioxidant Agents for Alzheimer′s Disease Therapy” (Molecules, 2016).

The target of data set [1] is T1, BuChE from horse serum (eqBuChE) (Equus caballus, UniProt P81908).
T1 construct: BuChE from horse serum (lyophilized powder, Sigma-Aldrich); purchased Sigma-Aldrich; host or cells: horse serum
The experiment in a line: biochemical. The settings on record: mean ± SEM. Here is the method: The % inhibitory activity on BuChE from horse serum (lyophilized powder, Sigma-Aldrich), was evaluated spectrophotometrically by the method of Ellman et al.. BuChE stock solutions were first dissolved in 0.1 M phosphate buffer (pH 8.0) and then aliquoted in small vials. Compounds were dissolved in DMSO at 10 mM. The reaction was carried out in a final volume of 3 mL of a 0.1 M phosphate-buffered solution at pH 8.0, containing 5,5′-dithiobis-2-nitrobenzoic acid (DTNB, 2625 µL, 0.35 mM, final concentration), eqBuChE (60 µL, 0.05 U/mL final concentration), tested compound (3 µL, 10 µM, final concentration) and 1% w/v Bovine Serum Albumin phosphate-buffered (pH 8.0) solution (BSA, 40 µL). The inhibition with respect to control without compound was determined by pre-incubating this mixture at rt with each compound for 10 min. After this period, butyrylthiocholine iodide (150 µL, 0.5 mM final concentration) was added and incubated for 15 min at rt.

For data set [2], the target named is AChE from Electrophorus electricus (EeAChE) (Electrophorus electricus, UniProt O42275). In words: biochemical. The settings on record: for solubility: pH 8. Here is the method:
The inhibitory activity on AChE from Electrophorus electricus (type VI-S, Sigma, Milan, Italy), was evaluated spectrophotometrically by the method of Ellman et al.. AChE stock solution was prepared by dissolving EeAChE lyophilized powder (Sigma) in 0.1 M phosphate buffer (pH = 8.0) containing 0.1% Triton X-100. Stock solutions of the tested compounds (1 mM) were prepared in MeOH/H2O 50/50 (v/v) and diluted in MeOH/H2O 50/50 (v/v). […] Assay solutions with and without inhibitor were preincubated at 37 °C for 20 min followed by the addition of substrate. Blank solutions containing all components except EeAChE were prepared in parallel to account for the non-enzymatic hydrolysis of the substrate. Initial rate assays were performed at 37 °C with a Jasco V-530 double beam spectrophotometer. […] The velocity in the presence and absence of inhibitor were compared and % inhibition was calculated. The results were plotted by placing the percentage of inhibition in function of the decimal log of the final inhibitor concentration. Linear regression and IC50 values were calculated using Microcal Origin 3.5 software (Microcal Software, […]).

Data set [3] in a line: Oxygen radical absorbance capacity by fluorescence (ORAC-FL). The settings on record: Trolox equivalents, mean ± SD. The protocol:
The antioxidant power of the imidazopyranotacrines 1–13 was determined by the oxygen radical absorbance capacity by fluorescence (ORAC-FL) method using fluorescein as fluorescent probe and Trolox (6-hydroxy-2,5,7,8-tetramethylchroman-2-carboxylic acid) as a reference compound. Results are expressed as Trolox equivalents (μmol Trolox per μmol test compound).
The radical scavenging activity of imidazopyranotacrines 1–13 was determined by the ORAC-FL method using a Varioskan Flash plate reader with built-in injectors (Thermo Scientific). Trolox, 2,2′-azobis(amidinopropane) dihydrochloride (AAPH) and fluorescein (FL) were purchased from Sigma-Aldrich. The reaction was performed at 37 °C in 75 mM phosphate buffer (pH = 7.4), and the final volume reaction mixture was 200 µL. The final concentrations were 1–8 µM for Trolox and 0.1–1 µM for the tested compounds. Briefly, in a black 96-well microplate (Nunc), antioxidant (20 µL) and fluorescein (120 µL) were incubated for 15 min at 37 °C. Then, 2,2′-azobis(amidinopropane) dihydrochloride (60 µL) was added using the built-in injector. […] All assays were made in triplicate and at least three different assays were performed for each sample.
The net AUC corresponding to a sample was calculated as follows: Net AUC = AUCantioxidant − AUCblank(2)
Regression equations were calculated by plotting the net AUC against the antioxidant concentration. The ORAC value was obtained by dividing the slope of the latter curve by the slope of the Trolox curve obtained in the same assay. ORAC values was expressed as µmol of Trolox equivalent/µmol of imidazopyranotacrines. Data are expressed as mean ± SD.

Setting [4] is: read-out: EeAChE % inhibition at the highest concentration.

Molecules are shown by their SMILES. ≈ marks a conversion by molar mass, not a printed value. Where “and” joins values, the source holds several entries; their conditions need not be identical. Equal entries are not always repeated.

T1 sequence (P81908 whole entry): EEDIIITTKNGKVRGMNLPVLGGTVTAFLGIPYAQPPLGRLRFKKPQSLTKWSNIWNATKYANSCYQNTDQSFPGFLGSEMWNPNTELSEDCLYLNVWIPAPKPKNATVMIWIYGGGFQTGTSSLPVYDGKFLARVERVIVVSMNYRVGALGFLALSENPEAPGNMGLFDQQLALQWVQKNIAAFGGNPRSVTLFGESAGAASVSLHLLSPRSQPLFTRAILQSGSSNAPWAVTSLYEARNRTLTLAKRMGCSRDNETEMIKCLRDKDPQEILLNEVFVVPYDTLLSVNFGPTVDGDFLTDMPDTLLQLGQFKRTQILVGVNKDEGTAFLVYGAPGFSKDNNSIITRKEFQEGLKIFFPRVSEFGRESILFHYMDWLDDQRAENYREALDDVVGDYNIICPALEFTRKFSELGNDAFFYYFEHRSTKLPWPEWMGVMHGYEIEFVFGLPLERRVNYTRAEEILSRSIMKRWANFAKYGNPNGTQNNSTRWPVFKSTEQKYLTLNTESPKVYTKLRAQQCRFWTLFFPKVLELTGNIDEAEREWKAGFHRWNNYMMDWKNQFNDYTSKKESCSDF
AChE from Electrophorus electricus (EeAChE), sequence (O42275 24-633): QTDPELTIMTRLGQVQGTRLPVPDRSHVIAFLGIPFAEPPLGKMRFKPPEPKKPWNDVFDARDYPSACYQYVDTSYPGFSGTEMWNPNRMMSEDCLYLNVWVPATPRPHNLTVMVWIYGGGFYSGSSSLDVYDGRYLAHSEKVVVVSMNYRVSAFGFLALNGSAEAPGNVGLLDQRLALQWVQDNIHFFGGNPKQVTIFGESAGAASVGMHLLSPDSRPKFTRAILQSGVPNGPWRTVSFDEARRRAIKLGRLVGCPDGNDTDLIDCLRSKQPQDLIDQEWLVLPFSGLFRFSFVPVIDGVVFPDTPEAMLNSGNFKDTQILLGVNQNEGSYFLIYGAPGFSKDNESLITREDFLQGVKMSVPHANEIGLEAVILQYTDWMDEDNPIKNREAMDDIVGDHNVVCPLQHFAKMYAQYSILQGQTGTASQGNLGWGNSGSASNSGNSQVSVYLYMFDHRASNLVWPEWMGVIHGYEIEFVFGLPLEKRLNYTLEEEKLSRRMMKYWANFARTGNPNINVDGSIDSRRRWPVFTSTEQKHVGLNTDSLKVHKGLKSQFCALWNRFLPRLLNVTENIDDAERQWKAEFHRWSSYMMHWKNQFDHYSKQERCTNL

As a reminder, the IC50 is the concentration at which inhibition is half-maximal. The low end stands for greater potency in that assay, the high end for weaker potency in that assay. The compound `Cn1ccnc1C1C2=C(CC(C)(C)CC2=O)Oc2nc3c(c(N)c21)CCCC3` (centres unmarked) [Compound 6, 11-Amino-3,3-dimethyl-12-(1-methyl-1H-imidazol-2-yl)-2,3,4,7,8,9,10,12-octahydro-1H-chromeno[2,3-b]quinolin-1-one] returned an inhibition at 10 µM in data set [1] of 33.5 ± 1.7%. The IC50 in data set [2] was 37.8 ± 1.2 µM. Besides, the ORAC in data set [3] is 2.34 µmol Trolox/µmol compound and 2.34 ± 0.31 µmol Trolox/µmol compound.

Usually solubility stands for the concentration that dissolves in the medium under given conditions. A lower solubility goes with little dissolved substance. `Cn1ccnc1C1c2c(nc3c(c2N)CCCCC3)Oc2ccc3ccccc3c21` (centres unmarked) [Compound 9, 15-(1-Methyl-1H-imidazol-2-yl)-9,10,11,12,13,15-hexahydrobenzo[5,6]chromeno[2,3-b]cyclohepta[e]pyridin-14-amine] registered an inhibition at 10 µM in data set [1] of 15.1 ± 4.7%. In data set [2], this compound had a solubility of 15 µM (≈ 5.95 µg/mL). Further, the inhibition at 15 µM in data set [2] (setting [4]) is below 15%. Further, the ORAC in data set [3] was found to be 1.35 ± 0.13 µmol Trolox/µmol compound.

Compound `Cn1ccnc1C1c2ccc3cccnc3c2Oc2nc3c(c(N)c21)CCCCC3` (centres unmarked) [Compound 13, 7-(1-Methyl-1H-imidazol-2-yl)-7,9,10,11,12,13-hexahydrocyclohepta[5′,6′]pyrido[3′,2′:5,6]pyrano[3,2-h]quinolin-8-amine] displayed an inhibition at 10 µM in data set [1] of 75.7 ± 2.3%. Also, the IC50 in data set [2] is 30 ± 2 µM. In addition, the ORAC in data set [3] is 2.25 µmol Trolox/µmol compound and 2.25 ± 0.29 µmol Trolox/µmol compound.

With `Cn1ccnc1C1c2c(nc3c(c2N)CCC3)Oc2ccc3ccccc3c21` (centres unmarked) [Compound 7, 13-(1-Methyl-1H-imidazol-2-yl)-9,10,11,13-tetrahydrobenzo[5,6]chromeno[2,3-b]cyclopenta[e]pyridin-12-amine], the inhibition at 10 µM in data set [1] was found to be 50.5 ± 7.3%. For the same compound, in data set [2], the IC50 was found to be 8.41 ± 0.14 µM. Further, in data set [3], the ORAC is 1.47 ± 0.13 µmol Trolox/µmol compound.

Consider `Cn1ccnc1C1c2ccc3cccnc3c2Oc2nc3c(c(N)c21)CCC3` (centres unmarked) [Compound 12, 7-(1-Methyl-1H-imidazol-2-yl)-7,9,10,11-tetrahydrocyclopenta[5′,6′]pyrido[3′,2′:5,6]pyrano[3,2-h]quinolin-8-amine], for which, in data set [1], the inhibition at 10 µM came to 27.5 ± 1.1%. Also, the IC50 in data set [2] stood at 15.3 ± 0.6 µM. The ORAC in data set [3] came out at 1.88 ± 0.07 µmol Trolox/µmol compound.

In data set [1], `Cn1ccnc1C1c2ccc3ccccc3c2Oc2nc3c(c(N)c21)CCCCC3` (centres unmarked) [Compound 11, 7-(1-Methyl-1H-imidazol-2-yl)-7,9,10,11,12,13-hexahydrobenzo[7,8]chromeno[2,3-b]cyclohepta[e]pyridin-8-amine] gave an inhibition at 10 µM of 20.3 ± 3.7%. The compound further displayed a solubility in data set [2] of 25 µM (≈ 9.91 µg/mL). The inhibition at 25 µM in data set [2] (setting [4]) was below 15%. The ORAC in data set [3] was 2.33 µmol Trolox/µmol compound and 2.33 ± 0.13 µmol Trolox/µmol compound.

Turning to `Cn1ccnc1C1C2=C(CC(C)(C)CC2=O)Oc2nc3c(c(N)c21)CCC3` (centres unmarked) [Compound 5, 11-Amino-7,7-dimethyl-10-(1-methyl-1H-imidazol-2-yl)-2,3,6,7,8,10-hexahydrochromeno[2,3-b]cyclopenta[e]pyridin-9(1H)-one], the inhibition at 10 µM in data set [1] was 12.9 ± 0.5%. Moreover, the midpoint of inhibition in data set [2], the IC50, lay at 158 ± 33 µM. The ORAC in data set [3] came to 1.70 ± 0.33 µmol Trolox/µmol compound.

In the case of `CCOC(=O)C1=C(C)Oc2nc3c(c(N)c2C1c1nccn1C)CCC3` (centres unmarked) [Compound 1, Ethyl 5-amino-2-methyl-4-(1-methyl-1H-imidazol-2-yl)-4,6,7,8-tetrahydrocyclopenta[b]pyrano[3,2-e]pyridine-3-carboxylate], the inhibition at 10 µM in data set [1] was found to be 25.6 ± 0.7%. The IC50 in data set [2] amounted to 12.9 ± 0.3 µM. The ORAC in data set [3] was 0.34 ± 0.03 µmol Trolox/µmol compound.

In data set [1], `CCOC(=O)C1=C(C)Oc2nc3c(c(N)c2C1c1nccn1C)CCCCC3` (centres unmarked) [Compound 3, Ethyl 5-amino-2-methyl-4-(1-methyl-1H-imidazol-2-yl)-4,6,7,8,9,10-hexahydrocyclohepta[b]pyrano[3,2-e]pyridine-3-carboxylate] gave an inhibition at 10 µM of 32.2 ± 0.9%. For the same compound, half-maximal inhibition in data set [2] (IC50) was put at 432 ± 84 µM. For the same compound, in data set [3], the ORAC is given as 1.99 ± 0.23 µmol Trolox/µmol compound.
